# Measurements reported in patent US20240376062A1, “COMPOUNDS FOR THE TREATMENT OF ALZHEIMER’S DISEASE” (BOARD OF TRUSTEES OF MICHIGAN STATE UNIVERSITY, priority 2021, published 2024).
# Entries after “also recorded” stand apart in the source; their conditions may differ.
# Key:
# [1] = target: T1, p-tau (Homo sapiens, UniProt P10636); test: Photo-induced cross-linking (PICUP) assay of p-tau oligomerization; type: biochemical; details: for inhibition of p-tau oligomer formation (cross-linking): p-tau 6 μM preincubated with compound 50 μM for 24 hours; for dose dependence of inhibition of p-tau oligomerization: dose response experiments, FIG. 3 lower panel (B)
# T1 construct: made in house
# T1 sequence (P10636 1-412 isoform P10636-7): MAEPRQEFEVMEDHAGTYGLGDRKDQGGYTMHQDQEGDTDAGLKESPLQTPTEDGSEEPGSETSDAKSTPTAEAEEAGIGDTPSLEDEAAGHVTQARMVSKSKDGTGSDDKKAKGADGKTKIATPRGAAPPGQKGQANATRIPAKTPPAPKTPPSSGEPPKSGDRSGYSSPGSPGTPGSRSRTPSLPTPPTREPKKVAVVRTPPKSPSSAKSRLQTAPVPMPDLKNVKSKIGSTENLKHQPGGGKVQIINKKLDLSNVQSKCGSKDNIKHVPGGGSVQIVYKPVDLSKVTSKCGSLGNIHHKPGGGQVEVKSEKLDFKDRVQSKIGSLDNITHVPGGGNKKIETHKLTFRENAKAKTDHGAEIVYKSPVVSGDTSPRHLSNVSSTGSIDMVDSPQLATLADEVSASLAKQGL
# Method: p-Tau was diluted in 10 mM phosphate buffer (pH 7.4) at a final concentration of 10 μM and preincubated with different compounds for 24 h prior cross-linking. Different compounds were added to the p-tau solution at a final concentration of 12.5, 25, or 50 μM. The control consisted of samples without Ru(bpy), light exposition, and without compound. The reaction buffer consisted of 300 μM Ru(bpy), 6 mM ammonium persulfate. Prior light exposure, p-tau was diluted to a final concentration of 6 μM. Cross-linking was induced by irradiation, for 3 s, at a final volume of 20 μL, with a 53 W (120 V) incandescent lamp installed in a homemade dark-box. After irradiation, 8.3 μL of Lammeli loading buffer was immediately added to the solution, followed by incubation at 95° C. for 10 min. The cross-linked samples were separated on a 10% SDS-Page gel and visualized by Coomassie blue staining.
# (§1) To examine how JF-19-73 affected p-tau fibrillization, two approaches were taken. Firstly, we used the Photo-Induced Cross-linking of Unmodified Proteins (PICUP) assay to investigate p-tau oligomerization under the influence of JF19-73 (FIG. 3). After being subjected to short light exposure, p-tau was cross-linked and resolved as a smear of higher molecular weight (lane 3, FIG. 3).^[6c] […] We further perform transmission electron microscopy to visualize the extent and morphology of p-tau fibrils.
# [2] = system: SH-SY5Y cells; test: Cell viability assay, protection from aggregated p-tau and compound toxicity; type: cell-based, human; details: for protection of SH-SY5Y cells against p-tau cytotoxicity: 0.8 μM p-tau, compound 8 μM (molar ratio 1:10)
# Method: Cells were maintained in a 37° C., 5% CO2 incubator, in exponential growth, for the duration of experimentation. For this assay, cells were seeded in 96-well microtiter plates at a density of 5×10^3 SH-SY5Y cells per well for 24 h. Compounds freshly solubilized in DMSO were diluted in culture medium and aliquots containing sequential dilution of drugs were added subsequently after stimulation with 2 μM of p-tau. p-Tau was dissolved and incubated in 10 mM PBS (pH 7.4, 25° C.) 24 h before addition to cells. Compounds were tested at 2, 4, and 8 μM and DMSO concentration was maintained at 0.1% to avoid growth inhibition. […] Plates were incubated for 24 h in the presence of compounds and p-Tau. Cell-based assays were performed as previously described ((Liu et al, 2020, Sci. Rep. Hyperphosphorylated tau aggregation and cytotoxicity modulators screen identified prescription drugs linked to Alzheimer's disease and cognitive functions. Liu M, Dexheimer T, Sui D, Hovde S, Deng X, Kwok R, Bochar D A, Kuo M H. Sci Rep. 2020 Oct. 6; 10(1):16551. doi: 10.1038/s41598-020-73680-2.). The cell viability was calculated from fluorescence measured with a Synergy HT multi-mode microplate reader (BioTek, Winooski, VT). The data from experiments conducted in triplicate were corrected for the background fluorescence of the medium and was expressed as the mean percentage of fluorescence obtained for control DMSO-treated cells. The growth inhibition percentage was calculated with reference to DMSO-treated cells for each compound concentration. The results were obtained from at least three separated experiments. The cell viability assay was considered valid when the variability among data for a given set of conditions, within the same experiment, was less than 10% with respect to the mean value. All values represent means±SD (n=3).
# Cell viability assays were performed using SH-SY5Y cells to evaluate the potential of the molecules representing the sulfonamide, sulfonylurea, and urea series to protect cells from aggregated p-tau (FIG. 5). The survival rate was assessed after treatment with 0.8 μM p-tau in the absence or the presence of JF-19-73, JF-19-43 (urea), JF(TT)-20-58 at 8 μM. […] It has been reported previously (Liu et al, 2020, Sci. Rep. Hyperphosphorylated tau aggregation and cytotoxicity modulators screen identified prescription drugs linked to Alzheimer's disease and cognitive functions. Liu M, Dexheimer T, Sui D, Hovde S, Deng X, Kwok R, Bochar D A, Kuo M H. Sci Rep. 2020 Oct. 6; 10(1):16551. doi: 10.1038/s41598-020-73680-2.) that not all effective p-tau aggregation inhibitors, as indicated by significant reductions in ThSmax, were cytoprotective.
# [3] = target: T1, p-tau; test: Thioflavin-S (ThS) fluorescence assay of p-tau fibril formation; type: biochemical; details: compound 100 μM, about 15x molar excess to p-tau
# Method: p-Tau from the stock solution of 1 mM was added to 20 mM Tris buffer (pH 7.4) with 1 mM DTT and transferred to a black microplate 384 well plate with flat bottom and medium binding (greiner bio-one, ref 784076). Each well contained a final volume of 10 μL with a peptide final concentration of 6 μM. Experiments in the presence of p-tau were initiated by adding a solution of ThS at a final concentration of 20 μM with different compounds. Final compound concentrations ranged from 25 to 100 μM. The background sample consisted of 0.1% DMSO in buffer without p-tau. The plate was sealed and read with the excitation and emission wavelengths set at 440 and 490 nm, respectively, with a Synergy HT multi-mode microplate reader (BioTek, Winooski, VT). Measurements were taken at 37° C. every 10 min for 16 hours. Samples were measured in three replicates and the experiments were repeated three times using different p-tau stock solutions. For each time point, arbitrary units of fluorescence were calculated from the mean values normalized against the maximum value in each completed assay. Arbitrarily, the maximum value (100%) for the fluorescence intensity was established for p-tau with 0.1% DMSO.
# The structure of three newly synthesized small molecules representing the sulfonamide (JF-19-73), sulfonylurea (JF(Tr)-20-58), and urea (JF-19-43, JF(TT)-19-5) series are presented in FIG. 1. These molecules were assessed for their anti-aggregation and cytoprotection effects using biophysical methods and survival assays on human neuroblastoma SH-SY5Y cells, respectively. […] First, the formation of fibrils was monitored by measuring the fluorescence intensity of the dye thioflavin-S (ThS) with the excitation and emission wavelengths set at 440 and 490 nm. The fluorescent dye ThS specifically binds to the cross β-sheet structure of protein fibrils, providing a strong fluorescence emission.^[14] Since the fluorescence emission increases with fibrils formation, the kinetic process of fibrillization is routinely assessed using ThS fluorescence as the primary assays to screen for the candidate inhibitors. […]
# [4] = Solubility in aqueous phase; type: physicochemical
# [5] = target: T1, p-tau; test: Transmission electron microscopy of p-tau fibrils; type: biochemical; details: p-tau 20 μM, compound 100 μM, 24 hours, vs. DMSO
# Method: […] A volume of 10 μL was applied on a 400-mesh Formvar-carbon-coated cooper grid (Electron Microscopy Sciences, Hatfield, PA) to confirm the presence or the absence of fibrils. The grids were incubated for 1 minute and washed three times with distilled water. They were carefully air-dried and incubated for 1 minute in a fresh solution of 1% uranyl acetate. Samples were air-dried and observed using a transmission microscope (JEOL 1400 Flash, Japan). Pictures were acquired at an accelerating voltage of 100 kV and magnification of 40 and 80 k.
# as §1
inhibition of p-tau oligomer formation (cross-linking) ([1]; listed as JF19-43),inhibition of p-tau oligomer formation (cross-linking) ([1]; listed as JF(T)-19-58),solubility (S) in aqueous phase [4],Compound,inhibition of p-tau oligomer formation (cross-linking) [1],protection of SH-SY5Y cells against p-tau cytotoxicity [2],dose dependence of inhibition of p-tau oligomerization [1],"inhibition of p-tau fibril formation (ThS fluorescence intensity, ThSmax) [3]",p-tau fibril formation by TEM [5],toxicity of compound to SH-SY5Y cells ([2]; compound 8 μM without p-tau),"protection against p-tau cytotoxicity, dose dependence ([2]; compound 2, 4 and 8 μM)"
high molecular weight p-tau oligomers,–,–,CCNC(=O)Nc1ccc2c(c1)Cc1ccccc1-2 [JF-19-43],had no effect,negative controls,–,–,–,–,–
–,–,–,O=C(Nc1ccccc1)Nc1ccc2c(c1)Cc1ccccc1-2 [JF(TT)-19-5],had no effect,–,negative control,–,–,–,–
–,–,–,O=C(Nc1ccc(Cl)cc1)Nc1ccc2c(c1)Cc1ccccc1-2 [JF(NBMI)-20-45],–,–,–,not a potent inhibitor of p-tau aggregation,–,–,–
–,had no effect,–,O=C(Nc1ccc2c(c1)Cc1ccccc1-2)NS(=O)(=O)c1ccc(Cl)cc1 [JF(TT)-20-58],high molecular weight p-tau oligomers,negative controls,–,not a potent inhibitor of p-tau aggregation,–,–,–
–,–,> 100 µM,O=S(=O)(Nc1ccc2c(c1)Cc1ccccc1-2)c1ccc(Cl)cc1 [JF-19-73],inhibits fibril (ThSmax) and oligomer (Oligo. Inh.) formation; also recorded: stopped formation of p-tau oligomers; also recorded: effectively prevented this crosslinking,protects SH-SY5Y cells against p-tau,dose-dependent manner,inhibits fibril; also recorded: most potent to inhibit fibril formation,less fibrils; also recorded: clear effects on p-tau fibrillization,non-toxic to cells,protected cell in a dose-dependent manner
